Literature values as cited in patent publication US10568927B2, “Methods and compositions comprising desmopressin in combination with a beta-3-adrenergic receptor agonist” (Serenity Pharmaceuticals, LLC, priority 2013, dated 2020).

Settings: human, in vivo

NC(=O)CC[C@@H]1NC(=O)[C@H](Cc2ccccc2)NC(=O)[C@H](Cc2ccc(O)cc2)NC(=O)CCSSC[C@@H](C(=O)N2CCC[C@H]2C(=O)N[C@H](CCCN=C(N)N)C(=O)NCC(N)=O)NC(=O)[C@H](CC(N)=O)NC1=O [desmopressin, 1-desamino-8-D-arginine vasopressin]
half-life (known clearance rate): 1.5 to 2.0 h
